Laboratory results published in patent US9833437B2 (priority 2014, dated 2017).
“And” between values parts separate entries of the source, which are not always exact repeats. Equal values may be shown once. Read-outs that look alike come from different tables or passages of the source.

Experiments:
[1] = system: MyD88-mediated NF-kB driven SEAP reporter response; type: cell-based, human
[2] = system: pro-inflammatory cytokine production of human PBMCs; type: cell-based
[3] = system: SEB-induced toxic shock in BALB/c mice; conditions: mouse, in vivo
[4] = system: dengue virus; type: cell-based; conditions: read-out: IC50 reduction of virus replication
[5] = system: Lassa virus; type: cell-based; conditions: read-out: IC50 reduction of virus replication
[6] = system: VEEV (TC-83); parameters: species or system C3H/HeN mice; conditions: mouse, in vivo, ip
[7] = system: pro-inflammatory cytokine production in spleen cells of BALB/c and C57BL/6 mice; type: cell-based, mouse
[8] = system: HEK293-TLR3 cells; type: cell-based, human
[9] = system: human glioblastoma astrocytoma U87 cells; type: cell-based
[10] = target: T1, MyD88 and IRF3 interaction (Homo sapiens, UniProt Q99836); type: cell-based
T1 construct: no number printed for the IRF3-HA plasmid; host or cells: HEK293-TLR3 (InvivoGen)
T1 sequence (Q99836 whole entry): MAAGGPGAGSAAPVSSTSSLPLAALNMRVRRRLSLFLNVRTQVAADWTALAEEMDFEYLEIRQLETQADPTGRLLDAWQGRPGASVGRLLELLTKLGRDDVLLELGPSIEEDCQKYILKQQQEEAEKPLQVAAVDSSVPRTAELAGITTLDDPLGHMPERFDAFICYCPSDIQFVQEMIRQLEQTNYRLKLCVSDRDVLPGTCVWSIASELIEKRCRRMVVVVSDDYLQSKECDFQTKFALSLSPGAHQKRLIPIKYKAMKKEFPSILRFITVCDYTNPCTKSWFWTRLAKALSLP

[11] = system: U937 cells; type: cell-based, human
[12] = system: lethal endotoxic shock (LPS) in mice; conditions: mouse, in vivo
[13] = system: Ebola virus; type: cell-based; conditions: read-out: IC50 reduction of virus replication
[14] = system: Rift valley fever virus; type: cell-based; conditions: read-out: IC50 reduction of virus replication
[15] = system: IRF3 phosphorylation; type: cell-based, human

## CC(C)[C@H](NC(=O)CCc1ccccc1)C(=O)N1CCCC1 [Compound 1, Hydrocinnamoyl-L-valyl-pyrrolidine, reference compound]
[1]
  IC50: 180 µM
[2]; read-out: IC50 IFN-γ
  IC50: 41 µM and 40 µM
[2]; read-out: IC50 IL-1β
  IC50: 24 µM
[2]; read-out: IC50 IL-6
  IC50: 14 µM
[2]; read-out: IC50 TNF-α
  IC50: 19 µM

## CC(C)[C@@H](C(=O)N1CCCC1)N(CCCc1ccccc1)C(=O)[C@H]1CC[C@H](C(=O)N(CCCc2ccccc2)[C@H](C(=O)N2CCCC2)C(C)C)CC1 [Compound 4210]
[2]
  inhibition of cytokine production: inhibited cytokine production
[2]; read-out: IC50 IFN-γ
  IC50: 0.3 µM and 0.9 µM
[2]; read-out: IC50 IL-1β
  IC50: 0.73 µM
[2]; read-out: IC50 IL-6
  IC50: 0.4 µM and 0.17 µM
[2]; read-out: IC50 TNF-α
  IC50: 0.27 µM
[2]; read-out: average inhibitory concentration (IC50) for most of the pro-inflammatory cytokines tested
  IC50: 1 to 50 µM
[3]
  amount giving therapeutic efficacy from toxic shock-induced death with lethal SEB challenge: 1 mg
  effect on death, post-exposure treatment: delayed in death
  protection: completely protected
  protection, post-exposure treatment: 33%
  survivability: 33% and 66%
[4]
  IC50: 31 µM
[5]
  IC50: 35 µM
[6]
  clinical disease score: less clinical diseases score
  survival: increased survival
  weight loss: significantly prevented weight loss
[7]
  inhibition of pro-inflammatory cytokine production in spleen cell cultures: inhibited most of the pro-inflammatory cytokine production
[8]
  RANTES production: increased in RANTES production
[9]
  IFN-β production: increased IFN-β production in a dose dependent manner
  RANTES production: increase in RANTES production
[10]
  MyD88-associated IRF3 band after pull down with Flag antibody: dose dependent decrease of IRF3 band
[11]
  RANTES production: increase in antiviral RANTES production
  expression of co-stimulatory molecules CD86 and CD80: increased expression co-stimulatory molecules such as CD86 and CD80
  increase in IFN-β production: over 3 fold
[12]
  effect on death: delayed death
  mice protected from lethal endotoxic shock: 33%
[13]
  IC50: 42 µM
[14]
  IC50: 22 µM
[15]
  phosphorylation of IRF-3: increase in phosphorylation was observed in a dose dependent manner
